Eight compounds from the supplement of paper PMC11061612 can be followed below.

Common to all, as to assay: Bliss excess, mean over the matrix (fraction); higher = more synergy
Experiment [1] relates to PFSK-1 (Other Solid Carcinomas). Put shortly:
(§1)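 Bliss excess equals the observed combination effect minus the expected value EA + EB − EA·EB, where EA and EB are the effects of each agent alone. Combination Emax is the second-highest inhibition within the matrix. Inhibition was scaled from CellTiter-Glo 2.0 luminescence, with 0 set by vehicle wells and 1 by blank wells, after 72 hours of two-drug dosing of cells plated in 1536-well plates.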

The subject of experiment [2] is KYSE-150 (Esophageal Squamous Cell Carcinoma). Put shortly: as §1
In experiment [3] the test system is KINGS-1 (Low Grade Glioma). In outline:
as §1

The test system of experiment [4] is EBC-1 (Squamous Cell Lung Carcinoma). Put shortly:
as §1

The test system of the next experiment is A704 (Kidney Carcinoma). Put shortly: as §1
For the next experiment, the system named is GI-1 (Glioblastoma). Put shortly: as §1
Experiment [5] has as its system NCI-H1573 (Lung Adenocarcinoma). Put shortly: as §1
Experiment [6] relates to ASH-3 (Thyroid Gland Carcinoma). Put shortly: as §1
Experiment [7] concerns VMRC-LCD (Lung Adenocarcinoma). Put shortly: as §1
For experiment [8], the system named is BV-173 (Chronic Myelogenous Leukemia). In outline: as §1
The subject of experiment [9] is LC4-1 (B-Lymphoblastic Leukemia). Put shortly:
as §1

The subject of another experiment is EW-13 (Ewing's Sarcoma). In outline: as §1
Experiment [10] has as its system KU-19-19 (Bladder Carcinoma). Put shortly:
as §1

Another experiment has as its system IMR-5 (Neuroblastoma). In outline: as §1

For the compound `CN(CCO)CC[C@H](CSc1ccccc1)Nc1ccc(S(=O)(=O)NC(=O)c2ccc(N3CCC([C@@H](O)c4ccccc4-c4ccc(Cl)cc4)CC3)cc2)cc1S(=O)(=O)C(F)(F)F` [AZD4320] + Cc1cc2ncnn2cc1Nc1ncc2c(n1)n(C1CCOCC1)c(=O)n2C [AZD7648] (first compound max 1 µM, 7x7, partner max 10 µM), the Bliss excess in experiment [1] is 0.0756; in experiment [2], -0.0396; in experiment [3] it was -0.0152; in experiment [4], -0.0396; in the experiment on A704 (Kidney Carcinoma), -0.0394; in the experiment with GI-1 (Glioblastoma) it was 0.0161. Also, the Bliss excess is -0.0358 in [5]; -0.0866 in [6]; -0.0595 in experiment [7]; -0.0643 in experiment [8]; 0.0066 in [9]; -0.0223 with EW-13 (Ewing's Sarcoma). Moreover, the Bliss excess in experiment [10] was -0.0359; in the experiment on IMR-5 (Neuroblastoma) it was 0.0335.

Take `CC1(C)CCC(CN2CCN(c3ccc(C(=O)NS(=O)(=O)c4ccc(NCC5CCOCC5)c([N+](=O)[O-])c4)c(Oc4cnc5[nH]ccc5c4)c3)CC2)=C(c2ccc(Cl)cc2)C1` [Venetoclax] + C[C@@H]1COCCN1C2=NC(=NC(=C2)C3(CC3)[S@](=N)(=O)C)C4=C5C=CNC5=NC=C4 [AZD6738] (first compound max 1 µM, 7x7, partner max 10 µM): the Bliss excess in experiment [1] was 0.0119; in [2], -0.0979; in experiment [3], -0.0432; in experiment [4], -0.0731; with A704 (Kidney Carcinoma) it was -0.0758; with GI-1 (Glioblastoma), -0.0025. Also, the Bliss excess in experiment [5] was -0.0313; in [6], -0.131; in experiment [7], -0.0393; in experiment [8] it was -0.0634; in experiment [9], 0.0467; in the experiment with EW-13 (Ewing's Sarcoma), 0.0008. The Bliss excess in [10] is -0.0844; in the experiment on IMR-5 (Neuroblastoma), 0.0104.

`COc1nnc2ccc(N3CCC(c4ccc(OCCN5CCN(C)C(=O)[C@H]5C)cc4)CC3)nn12` [AZD5153] + CC1(C)CCC(CN2CCN(c3ccc(C(=O)NS(=O)(=O)c4ccc(NCC5CCOCC5)c([N+](=O)[O-])c4)c(Oc4cnc5[nH]ccc5c4)c3)CC2)=C(c2ccc(Cl)cc2)C1 [Venetoclax] (first compound max 1 µM, 7x7, partner max 1 µM): the Bliss excess is -0.0853 in [1]; 0.0061 in [2]; -0.0288 in experiment [3]; -0.0413 in [4]; -0.0016 with A704 (Kidney Carcinoma); 0.0247 in the experiment with GI-1 (Glioblastoma). Also, the Bliss excess in experiment [5] was -0.0885; in [6] it was 0.0122; in experiment [7], -0.063; in [8] it was -0.0706; in experiment [9], -0.0482; in the experiment on EW-13 (Ewing's Sarcoma) it was 0.0173. Moreover, the Bliss excess is -0.0567 in experiment [10] and -0.0119 with IMR-5 (Neuroblastoma).

On to `CC1(C)CCC(CN2CCN(c3ccc(C(=O)NS(=O)(=O)c4ccc(NCC5CCOCC5)c([N+](=O)[O-])c4)c(Oc4cnc5[nH]ccc5c4)c3)CC2)=C(c2ccc(Cl)cc2)C1` [Venetoclax] + Cc1cc2ncnn2cc1Nc1ncc2c(n1)n(C1CCOCC1)c(=O)n2C [AZD7648] (first compound max 1 µM, 7x7, partner max 10 µM), for which the Bliss excess is 0.0904 in [1]; -0.0509 in [2]; -0.0474 in experiment [3]; 0.031 in experiment [4]; -0.0215 in the experiment with A704 (Kidney Carcinoma); 0.0369 in the experiment on GI-1 (Glioblastoma). The Bliss excess in experiment [5] was -0.0242; in experiment [6], -0.0732; in experiment [7], -0.0675; in experiment [8], -0.0492; in experiment [9], 0.0187; in the experiment on EW-13 (Ewing's Sarcoma), -0.0417. In addition, the Bliss excess in [10] is -0.0571; with IMR-5 (Neuroblastoma), -0.0038.

Consider `Cc1c2c(nn1C)CSCc1cc(n(C)n1)CSc1cc(c3ccccc3c1)OCCCc1c(C(=O)O)n(C)c3c-2c(Cl)ccc13` [AZD5991] + C=CCn1c(=O)c2cnc(Nc3ccc(N4CCN(C)CC4)cc3)nc2n1-c1cccc(C(C)(C)O)n1 [AZD1775] (first compound max 1 µM, partner max 1 µM), for which the Bliss excess in experiment [1] is -0.0282; in experiment [2], 0.0496; in experiment [3] it was -0.0037; in [4], 0.0007; in the experiment on A704 (Kidney Carcinoma), -0.0506; in the experiment on GI-1 (Glioblastoma) it was -0.0109. For the same compound, the Bliss excess in experiment [5] was -0.0248; in [6], -0.0243; in experiment [7], -0.0174; in experiment [8], -0.072; in [9], 0.0301; in the experiment with EW-13 (Ewing's Sarcoma), -0.0441. Besides, the Bliss excess was -0.0518 in [10] and 0.0063 in the experiment with IMR-5 (Neuroblastoma).

Regarding `CN(CCO)CC[C@H](CSc1ccccc1)Nc1ccc(S(=O)(=O)NC(=O)c2ccc(N3CCC([C@@H](O)c4ccccc4-c4ccc(Cl)cc4)CC3)cc2)cc1S(=O)(=O)C(F)(F)F` [AZD4320] + C[C@@H](Nc1cc(F)cc(F)c1)c1cc(C(=O)N(C)C)cc2c(=O)cc(N3CCOCC3)oc12 [AZD8186] (first compound max 1 µM, 7x7, partner max 3 µM), the Bliss excess in experiment [1] is 0.0634; in experiment [2], -0.0055; in experiment [3] it was 0.0959; in experiment [4], 0.0576; with A704 (Kidney Carcinoma) it was -0.117; in the experiment with GI-1 (Glioblastoma) it was -0.0011. The Bliss excess in [5] is -0.0545; in experiment [6], -0.051; in experiment [7] it was -0.0206; in experiment [8], 0.0166; in experiment [9], 0.0908; in the experiment on EW-13 (Ewing's Sarcoma), -0.015. The Bliss excess worked out at 0.0039 in [10] and 0.0508 in the experiment with IMR-5 (Neuroblastoma).

`COc1nnc2ccc(N3CCC(c4ccc(OCCN5CCN(C)C(=O)[C@H]5C)cc4)CC3)nn12` [AZD5153] + Cc1c2c(nn1C)CSCc1cc(n(C)n1)CSc1cc(c3ccccc3c1)OCCCc1c(C(=O)O)n(C)c3c-2c(Cl)ccc13 [AZD5991] (first compound max 1 µM, 7x7, partner max 1 µM): the Bliss excess in experiment [1] is 0.0454; in [2] it was -0.0732; in experiment [3] it was -0.0146; in experiment [4] it was -0.0528; in the experiment with A704 (Kidney Carcinoma), -0.0297; in the experiment with GI-1 (Glioblastoma), 0.0022. The Bliss excess in [5] is 0.0475; in experiment [6] it was -0.114; in [7], 0.0098; in experiment [8], 0.0184; in experiment [9], -0.0736; in the experiment on EW-13 (Ewing's Sarcoma) it was -0.0502. The Bliss excess was -0.0634 in experiment [10] and -0.0178 in the experiment on IMR-5 (Neuroblastoma).

Take `Cc1c2c(nn1C)CSCc1cc(n(C)n1)CSc1cc(c3ccccc3c1)OCCCc1c(C(=O)O)n(C)c3c-2c(Cl)ccc13` [AZD5991] + Cn1cnc2c(F)c(Nc3ccc(Br)cc3Cl)c(C(=O)NOCCO)cc21 [Selumetinib] (first compound max 1 µM, 7x7, partner max 3 µM): the Bliss excess in experiment [1] is 0.0395; in [2], 0.0402; in [3] it was -0.0147; in experiment [4] it was -0.0019; in the experiment on A704 (Kidney Carcinoma), -0.106; in the experiment with GI-1 (Glioblastoma) it was -0.0491. The Bliss excess was -0.0059 in experiment [5]; 0.0175 in experiment [6]; -0.0229 in [7]; 0.0265 in experiment [8]; 0.0467 in [9]; 0.0215 in the experiment on EW-13 (Ewing's Sarcoma). The Bliss excess in experiment [10] is 0.0759; in the experiment with IMR-5 (Neuroblastoma) it was -0.0154.
